Measured values reported in patent US20250250567A1, “PROTOZOA TRANSCRIPTION FACTOR INHIBITOR” (priority 2022, published 2025).

Columns and labels:
[1] = system: artemisinin-resistant plasmodium (Pf lek122); test: malaria treatment in humanized mice infected with artemisinin-resistant plasmodium; type: in vivo; details: i.p. on days 21-25, humanized NOG-SCID mice
Excerpt: AP2-PIPA1, which was designed in the same manner as in Example 1, was used to verify an inhibitory effect in vivo. Mice wherein red blood cells had been replaced with human red blood cells were infected with an artemisinin-resistant plasmodium and a therapeutic effect was examined in the thus-infected mice. The effect was verified in the case of administration of a PIPA alone and the case of combined administration with artemisinin.
Humanized mice were created by injecting human red blood cells (RBCs) into NOG-SCID mice. One milliliter of 50% HCT, A+ve red blood cells prepared with 0.5% Albumax and 3.1 mM hypoxanthine was injected into the NOG-SCID mice once daily for 3 weeks until 80% of the human red blood cells were established. The humanized mice were then infected with an artemisinin-resistant plasmodium (Pf lek122) by 4×10^7 RBCS infected with synchronized ring-stage parasites, and checked for parasitemia by determining a rate of Giemsa-stain positive RBCs from the infected mice. On days 21, 22, 23, 24, and 25, AP2-PIPA1 (AP2-1), artemisinin, or both were injected i.p. at the indicated dose.

[2] = biological target: dsDNA containing the target sequence TGCATG (SEQ ID NO: 1), AP2-Sc binding sequence; test: binding affinity of PIPA to dsDNA containing the target sequence; design: species or system P. falciparum
Experimental: FIG. 1b is a schematic diagram showing a DNA fragment used in one embodiment of the present disclosure to analyze a binding strength of AP2-PIPA1 to its target sequence;
(§1) Next, a binding affinity of a PIPA to dsDNA containing the target sequence for the AP2-PIPA (FIG. 1b) was verified. As designed, the AP2-PIPA1 was bound to the target sequence with a high binding activity, that is, a Kd value of 4.0 nM (FIG. 1c). Consistent with previous reports of low off-target toxicity of a PIPA, the AP2-PIPA was not toxic in either mouse cell lines (Raw264.7 cells, NIH3T3 cells) or human cell lines (U937 cells, A549 cells) (FIG. 2a and FIG. 2b). These analysis results support safety of a PIPA at least in the dose range in vitro.

[3] = system: P. falciparum 3D7 laboratory strain; test: proliferation and life cycle of P. falciparum 3D7 at blood stage in vitro (Giemsa staining, FACS); type: cell-based; details: for life cycle of P. falciparum (microscopic observation, Giemsa staining): 24 and 48 hours after infection; for transition to schizont stage / schizont formation: in vitro culture
Experimental: Then, an effect of the AP2-PIPA on proliferation of a P. falciparum 3D7 laboratory strain at a blood stage in vitro was examined. Human red blood cells were infected with P. falciparum and cultured in the presence or absence of the AP2-PIPA. Microscopic observation with Giemsa staining and quantitative count of parasites and their stages by FACS analysis were performed at 24 and 48 hours after the infection.

[4] = system: Plasmodium berghei strain; test: mouse infection experiment, parasitemia; type: in vivo; details: intraperitoneal
Experimental: Furthermore, an effect of the AP2-PIPA1 was verified in a mouse infection experiment. Mice were infected with a Plasmodium berghei strain and received the AP2-PIPA1 intraperitoneally at each time point (day 1, day 2, day 3, day 4, day 5, day 6, and day 7) shown in the upper schematic diagram in FIG. 6. Blood was collected at 11 or 13 days after the infection to assess parasitemia. […] Multiple administrations of a high dose, i.e., 30 mg/kg are believed to cause toxicity.

[5] = system: U937 cells, A549 cells; test: cytotoxicity in human cell lines (DNA release, LDH activity in culture supernatant); type: cell-based; details: DNA release and LDH activity in culture supernatant
Experimental: as §1

[6] = toxicity of a single intraperitoneal administration in mice; type: in vivo
Experimental: (§2) Toxicity of a single intraperitoneal administration of AP2-PIPA1 was studied in mice. […] Observation of viability and general conditions, measurement of body weight, a hematology test, a blood chemistry test, and necropsy were performed as toxicity assessment indices. […] However, the value for each individual in these groups falls within a background value (34 to 58 IU/L) and thus the changes are determined to be due to physiological variation.
as §2, with “Furthermore, toxicity of a” for “Toxicity of a”, “administration of the AP2-PIPA1 was” for “administration of AP2-PIPA1 was”

[7] = system: artemisinin-resistant plasmodium strain, various Plasmodium strains; test: proliferation of artemisinin-resistant and other Plasmodium strains in human red blood cells in vitro; type: cell-based; details: 72 hours after infection
Experimental: Plasmodia were cultured in red blood cells in the presence of various concentrations of a PIPA and, 72 hours later, parasitemia was assessed;
An effect of the AP2-PIPA on proliferation of an artemisinin-resistant strain in vitro was further examined (FIG. 4). Human red blood cells were infected with various Plasmodium strains and cultured in the presence or absence of the AP2-PIPA at various concentrations. Parasitemia was evaluated at 72 hours after the infection to verify a degree of proliferation of Plasmodium treated with various concentrations of the AP2-PIPA, and an IC50 value for the AP2-PIPA in each Plasmodium strain was calculated from the above results. As a result, the AP2-PIPA1 inhibited proliferation of the artemisinin-resistant plasmodium strain with a lower IC50.

[8] = toxicity of multiple administrations in mice; type: in vivo; details: once daily for 7 days orally or intraperitoneally
Experimental: Mice received various doses of AP2-PIPA1 once daily for 7 days orally or intraperitoneally. On day 8, blood was collected and AST and ALT were measured. Significant difference tests were performed for the 3 mg/kg and 10 mg/kg dose groups relative to the control group for each route of administration.
Furthermore, toxicity of multiple administrations of the AP2-PIPA1 was studied in mice. Mice received various doses of the AP2-PIPA1 once daily for 7 days orally or intraperitoneally. On day 8, blood was collected and AST and ALT were measured (FIG. 5b). Significant difference tests were performed for the 3 mg/kg and 10 mg/kg dose groups relative to the control group for each route of administration.

[9] = system: Raw264.7 cells, NIH3T3 cells; test: cytotoxicity in mouse cell lines (DNA release, LDH activity in culture supernatant); type: cell-based; details: mouse cell lines Raw264.7, NIH3T3; DNA release and LDH activity in culture supernatant
Experimental: as §1

[10] = system: Plasmodium spp.; details: known; cited from earlier work
[11] = 30 mg/kg dose group, multiple administrations
[12] = single intraperitoneal administration 5, 10, 20 mg/kg, observed 7 days
[13] = 3 and 10 mg/kg vs control, blood on day 8

CC(=O)Nc1cc(C(=O)Nc2cc(C(=O)NCCC(=O)Nc3cn(C)c(C(=O)Nc4cc(C(=O)NCCCC(=O)Nc5cn(C)c(C(=O)Nc6cc(C(=O)Nc7cc(C(=O)NCCC(=O)Nc8cc(C(=O)NCCC(=O)NCCCN(C)C)n(C)c8)n(C)c7)n(C)c6)n5)n(C)c4)n3)n(C)c2)n(C)c1 [AP2-PIPA1]
therapeutic effect on malaria infection (parasitemia) ([1]; administration alone): a therapeutic effect on malaria infection was confirmed
therapeutic effect on malaria infection (parasitemia) ([1]; combined administration with artemisinin): a therapeutic effect on malaria infection was confirmed
Kd [2]: 4 nM
life cycle of P. falciparum (microscopic observation, Giemsa staining) ([3]; human red blood cells): arrested a life cycle of P. falciparum at a trophozoite stage
morphological change (FACS analysis) ([3]; human red blood cells, at both 24 and 48 hours after infection): a morphological change was arrested at the trophozoite stage
transition to schizont stage / schizont formation [3]: specifically inhibits transition to a schizont stage
transition to schizont stage / schizont formation ([3]; listed as AP2-PIPA): strongly inhibit schizont formation
mouse death [4, 11]: mouse death
parasitemia [4, 11]: suppression of parasitemia
parasitemia ([4]; day 1 to day 7, blood at 11 or 13 days after infection): dose-dependent suppression of parasitemia
toxicity (cytotoxicity) [5]: not toxic
AST activity ([6]; mouse, in vivo, ip, 10 mg/kg): an upward trend was observed
deaths [6, 12]: No deaths were observed
general conditions, weight change, hematology test, blood chemistry test, autopsy [6, 12]: no changes that were considered to be abnormal were found
minimum lethal dose ([6]; single intraperitoneal administration, mice): greater than 20 mg/kg
IC50, proliferation (parasitemia) ([7]; artemisinin-resistant plasmodium strain): lower IC50
toxicity of multiple administrations ([8]; dose range examined): not prominently toxic
ALT [8, 13]: no significant difference
AST [8, 13]: no significant difference
toxicity (cytotoxicity) [9]: not toxic

CC(=O)Nc1cc(C(=O)Nc2cc(C(=O)NCCC(=O)Nc3cn(C)c(C(=O)Nc4cc(C(=O)NCCCC(=O)Nc5cn(C)c(C(=O)Nc6cc(C(=O)Nc7cc(C(=O)NCCC(=O)Nc8cc(C(=O)NCCC(=O)NCCCN(C)C)n(C)c8)n(C)c7)n(C)c6)n5)n(C)c4)n3)n(C)c2)n(C)c1 [AP2-PIPA2]
life cycle of P. falciparum (microscopic observation, Giemsa staining) ([3]; human red blood cells): thought to be effective at a higher concentration range than that used in this experiment
inhibitory effects on proliferation (parasitemia) ([7]; any of the Plasmodium strains): no inhibitory effects

Cc1nccnc1N1CCN(S(=O)(=O)c2ccc(-c3ccc(=O)[nH]n3)s2)CC1 [MBX-4055]
proliferation of Plasmodium spp. [10]: known to inhibit proliferation of Plasmodium spp.

C[C@@H]1CC[C@H]2[C@@H](C)C(=O)O[C@@H]3O[C@@]4(C)CC[C@@H]1[C@]32OO4 [artemisinin, reference compound]
therapeutic effect on malaria infection (parasitemia) ([1]; administration alone): an effect of artemisinin could not be observed
